Active and inactive are the calls of the source. No cut-off for these calls is given here.
How the values were obtained:
[1] = tested on: Monkey; experiment: Tested for radical curative activity in monkeys infected with Plasmodium cynomolgi at 10.0 (mg/kg)/day dose; C = curative; type: functional, organism-based; details: Cercopithecidae
[2] = tested on: Monkey; experiment: Tested for radical curative activity in monkeys infected with Plasmodium cynomolgi at 1.0 (mg/kg)/day dose; I = inactive; type: functional, organism-based; details: Cercopithecidae
[3] = tested on: Monkey; experiment: Tested for radical curative activity in monkeys infected with Plasmodium cynomolgi at 0.316 (mg/kg)/day dose; I = inactive; type: functional, organism-based; details: Cercopithecidae
[4] = tested on: Monkey; experiment: Tested for radical curative activity in monkeys infected with Plasmodium cynomolgi at 1 (mg/kg)/day dose; I = inactive; type: functional, organism-based; details: Cercopithecidae
[5] = tested on: Monkey; experiment: Tested for radical curative activity in monkeys infected with Plasmodium cynomolgi at 10 (mg/kg)/day dose; T = toxic; type: organism-based; details: cercopithecidae, in vivo
[6] = tested on: Monkey; experiment: Tested for radical curative activity in monkeys infected with Plasmodium cynomolgi I = inactive; type: functional, organism-based; details: Cercopithecidae

`COc1cc(NCCCC(C)N)c2cc(Br)ccc2c1OC` (stereo not drawn) was tested, and the Activity [1] was “Curative” and the Activity [2] was “inactive”.

With `CCC(CCCN)Nc1cc(OC)c(OC)c2ccccc12` (stereo not drawn) the Activity [3] was “inactive”, the Activity [4] was “inactive” and the Activity [5] was “Toxic”.

In the case of `COc1cc(NC(C)CCCN)c2ccccc2c1OC` (stereo not drawn), the Activity [2] is reported as “inactive”.

`COc1cc(NCCCC(C)N)c2ccccc2c1OC` (stereo not drawn) was tested, and the Activity [2] was “inactive”.

`CCN(CC)CCCC(C)Nc1cc(OC)c(OC)c2ccccc12` (stereo not drawn) was tested, and the Activity [6] was “inactive”.
